In PubChem BioAssay (NCI):
Several values for one entry are separate records, joined by “and”; a condition that tells them apart may be missing. Identical values can stand only once.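 Grown in 96-well plates, cells were treated for 48 hours with each compound at five concentrations. Insufficient inhibition: endpoint recorded as highest concentration tested. GI50 is the concentration that inhibits growth by half. TGI: concentration producing complete growth inhibition.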

Each molecule was assayed on MDA-MB-468 breast (assay: NCI anticancer screen, dose series, 48 h).

Row | Compound | GI50 | TGI
1 | COC(=O)c1cc2ccccc2c2c3c(ccc12)OCO3 | 48.8 µM | > 1000 µM
2 | O=c1c(O)c(-c2ccc(O)c(O)c2)oc2cc(O)cc(O)c12 | 6.67 µM | 47.2 µM
3 | Nc1ccccc1C#C/C=C\C#Cc1cccc(O)c1 | 1.38 µM | 20.4 µM
4 | N#Cc1c(NC(=O)c2ccc(F)c(Cl)c2)sc2c1CCC(=O)C2 | 0.387 µM | 1.95 µM
5 | C=C1CC[C@@H]2[C@](C)(COC(C)=O)[C@H](OC(C)=O)CC[C@@]2(C)[C@@H]1CC(Nc1ccc(S(=O)(=O)Nc2ccc(Cl)nn2)cc1)C1=CCOC1=O (stereo partly specified) | 1.32 µM | 3.37 µM
6 | N#CSCc1ccc(Cl)c(CSC#N)c1 | 0.129 µM | 32.6 µM
7 | COc1ccc(C(=O)/C=C/c2cccc(Nc3ccnc4cc(Cl)ccc34)c2)cc1 | 0.576 µM | 3.38 µM
8 | Nc1c(C(=O)c2cccc(-c3cccnc3)c2)cnn1-c1ccc(F)cc1F | 2.97 µM | > 25 µM
9 | O=C1C(SCCO)=C(SCCO)C(=O)N1c1ccc(-c2ccccc2)cc1 | 0.534 µM | 1.5 µM
10 | CC[C@H](CO)Nc1nc(NCc2ccccc2)c2ncn(C(C)C)c2n1 | 15.8 µM | 33.9 µM
11 | COc1cnc2c(c1)C(=O)c1c-2n(CCCNC2=NCCS2)c(=O)c2cc(Cl)ccc12 | 0.086 µM | 2.18 µM
12 | Cc1nn(-c2ccc(Cl)cc2)c2nc3c(nc12)C(=O)C(=O)c1ccccc1-3 | 13.9 µM | > 100 µM
13 | CN(C)c1ccc(C(=NO)c2ccc(N(C)C)cc2)cc1 | 0.716 µM | 4.43 µM
14 | Cc1nn(C)c(COc2ccc(N3CCN(S(=O)(=O)N(C)C)CC3)cc2)c1-c1cccc2c(CCCOc3cccc4ccccc34)c(C(=O)O)n(CCN3CCOCC3)c12 | 1.91 µM | 5.36 µM
15 | CCOC(=O)c1cc2c(n1Cc1cc(OC)c(OC)c(OC)c1)-c1oncc1CCC2 | 0.666 µM | > 83.6 µM
16 | Cc1[nH]c2ccc(F)cc2c1-c1nc2c3cccnc3c3ncccc3c2[nH]1 | 0.201 µM | 0.787 µM
17 | Nc1ncnc2c1c(-c1ccc(Oc3ccccc3)cc1)nn2C[C@@H]1SSC[C@H]1O | 0.349 µM | 2.61 µM
18 | Cc1ccc2c(n1)C(=O)C(Cl)=C(Nc1cccc(C(F)(F)F)c1)C2=O | 1.77 µM | 3.66 µM
19 | COc1cc(OC)c(C(=O)/C=C/c2cccc(C#N)c2)c(OC)c1 | 0.792 µM | 2.46 µM
20 | Cc1ccc(-c2csc(NC(=O)N3CCN(c4cc5c(cc4F)c(=O)c(C(=O)O)cn5C4CC4)CC3)n2)cc1 | 1.29 µM | 8.17 µM
21 | COc1ccc(C2C(C#N)=C(N)Oc3c2sc2ccc(C)cc32)cc1 (stereo unspecified) | 2.42 µM | 9.74 µM
22 | NC(=O)c1ccc(-c2nc(-c3ccc4c(c3)OCO4)c(-c3ccccn3)[nH]2)cc1 | > 25 µM and 21.6 µM | > 25 µM and 57 µM
23 | O=[N+]([O-])c1ccc(N=Nc2ccc(O)c3ccccc23)cc1 | 3.26 µM | 30.6 µM
24 | C#CCNCCN1C(=O)c2ccc3c4c(ccc(c24)C1=O)C(=O)N(CCNCC#C)C3=O | 2.25 µM | 10.4 µM
25 | COc1ccc(Cl)c(Nc2nc3ccccc3nc2NS(=O)(=O)c2cccc(NC(=O)C(C)(C)N)c2)c1 | 2.63 µM and 1.62 µM | 14.8 µM and > 10 µM
26 | CC(C)=CCc1c2c(c(O)c3c1O[C@]14C(=C[C@@H]5C[C@H]1C(C)(C)O[C@@]4(C/C=C(/C)C(=O)O)C5=O)C3=O)CC(O)C(C)(C)O2 (stereo partly specified) | 12.1 µM | 27.6 µM
27 | COC(=O)Nc1nc2ccc(Oc3cccc(NC(=O)Nc4cc(C(F)(F)F)ccc4F)c3)cc2[nH]1 | 7.87 µM | > 23.1 µM

Row | Compound | GI50 | TGI
28 | COc1ccc(/C=C(\C(=O)NCc2cccnc2)S(=O)(=O)c2ccccc2)cc1OC | 1.57 µM | 5.27 µM
29 | c1ccc2[nH]c(-c3cc(-c4ccc5c(c4)OCO5)n[nH]3)nc2c1 | 3.57 µM | 17.2 µM
30 | O=C1NOC(c2ccc(O)cc2)(c2ccc(O)cc2)c2ccccc21 | > 100 µM | > 100 µM
31 | CC(C)CCNCC(O)Cn1c2ccccc2c2ccccc21 (stereo unspecified) | 1.95 µM | 4.35 µM
32 | O=C(Nc1ccc(Oc2cccc(F)c2)c(Cl)c1)c1cnccn1 | 0.834 µM | 4.99 µM
33 | Nc1c(C(=O)c2cccc(C#CCO)c2)cnn1-c1ccc(F)cc1 | > 25 µM | > 25 µM
34 | Cc1[nH]c(=O)nc(Nc2ccc(Cl)cc2)c1C(=O)N1CCN(CCO)CC1 | 34.8 µM | > 100 µM
35 | COc1ccc(C2=CC(c3ccc(OC)cc3Br)N3C=CSC3=N2)cc1 (stereo unspecified) | 2.65 µM | 10 µM
36 | Cc1ccc(-c2nc3nc(-c4ccccc4)nc(N4CCNCC4)c3o2)cc1 | 0.31 µM | 1.23 µM
37 | COc1ccc(CC(=O)c2ccc(O)cc2O)cc1 | 56.7 µM | > 100 µM
38 | CCN1C(=O)N(CC)C2C1NN=c1s/c(=C\c3ccccn3)c(=O)n12 (stereo unspecified) | 0.523 µM | 5.67 µM
39 | NC(=O)Nc1cc(-c2cccc(F)c2)sc1C(=O)N[C@H]1CCCNC1 | 0.591 µM and 0.398 µM | 2.35 µM and 1.64 µM
40 | Cc1ccc(C(=O)NC2CCC2)cc1-c1ccc(C(=O)NCC2CC2)cc1 | > 17.2 µM | > 25 µM
41 | COC(=O)C1=C(C)NC(C)=C(C(=O)OCC(C)C)C1c1ccccc1[N+](=O)[O-] (stereo unspecified) | 2.83 µM | 9.63 µM
42 | Cc1cnc(CNC(=O)c2c(=O)c3ccc(N4CCCN(C)CC4)nc3n3c2sc2ccccc23)cn1 | 15.7 µM | 34.8 µM
43 | CC(C)(C)c1[nH]nc2c1C(c1cc3ccccc3[nH]c1=O)Nc1cc(C(=O)OCc3ccccc3)ccc1N2 (stereo unspecified) | 2.46 µM | 6.74 µM
44 | COc1ccccc1CNCCCN1C(=O)c2ccc3c4c(ccc(c24)C1=O)C(=O)N(CCCN)C3=O | 0.333 µM | 1.36 µM
45 | Cn1cc(-c2csc(-c3cn(CCCN4CCCCC4)c4ccccc34)n2)c2cccnc21 | 1.87 µM | 3.74 µM
46 | CCN(CC)c1ccc(/C=N/NC(=O)c2ccc(NS(C)(=O)=O)cc2)cc1 | 0.358 µM | 3.81 µM
47 | O1[As]2O[As]3O[As]1O[As](O2)O3 | 0.216 µM | 1.26 µM
48 | [Cl][Ru].c1ccc(-c2cccc(-c3ccccn3)n2)nc1.c1ccc(-c2ccnc3c2ccc2c(-c4ccccc4)ccnc23)cc1 | 1.31 µM | 3.68 µM
49 | O=C1c2ccc3c4c(ccc(c24)C(=O)N1CCCNCc1ccccc1Cl)C(=O)N(CCCNCc1ccccc1Cl)C3=O | 0.124 µM | 0.352 µM
50 | CCC[CH2][Sn]1([CH2]CCC)[O]C2C(CO)OC(n3ccc(N)nc3=O)C2[O]1 (stereo unspecified) | 0.471 µM | 2 µM
51 | CC1=C(CCC(C)NCc2ccc(OCCCN3CCCCC3)cc2)C(C)(C)CCC1 (stereo unspecified) | 1.53 µM | 3.12 µM
52 | Cc1nn(-c2ccc([N+](=O)[O-])cc2)c2ncnc(N/N=C/c3ccccc3O)c12 | 1.09 µM | 3.88 µM
53 | Oc1cccc2ccc(-c3nnc(SCc4ccc(O)c5ncccc45)o3)nc12 | 0.986 µM | 8.49 µM
